From US7943608B2, “Diazepinoes” (Merck Patent GmbH, priority 2005, dated 2011)

Each compound was assayed against T1, His6-PDK1(Δ1-50) (Homo sapiens, UniProt O15530) (assay: Inhibition of PDK1 (IC50), 384-well flashplate kinase assay). Conditions: 4 μM ATP, 400 nM PDKtide, first part of Table 1 (compounds 1-31).
T1 construct: His6 (N)
T1 sequence (O15530 51-556): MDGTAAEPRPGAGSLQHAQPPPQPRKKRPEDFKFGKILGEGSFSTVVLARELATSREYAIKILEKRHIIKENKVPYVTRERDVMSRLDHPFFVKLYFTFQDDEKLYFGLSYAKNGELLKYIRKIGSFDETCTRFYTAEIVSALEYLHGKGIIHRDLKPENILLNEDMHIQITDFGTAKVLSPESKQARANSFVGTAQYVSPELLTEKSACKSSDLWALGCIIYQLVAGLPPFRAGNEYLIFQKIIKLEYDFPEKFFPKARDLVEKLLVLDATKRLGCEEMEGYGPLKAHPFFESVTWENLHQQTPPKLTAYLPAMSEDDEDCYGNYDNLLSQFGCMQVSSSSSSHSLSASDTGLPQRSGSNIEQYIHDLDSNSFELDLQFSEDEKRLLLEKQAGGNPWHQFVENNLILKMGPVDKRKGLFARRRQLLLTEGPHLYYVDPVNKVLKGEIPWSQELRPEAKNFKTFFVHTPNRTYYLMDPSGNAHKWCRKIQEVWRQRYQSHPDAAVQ
Type: biochemical
Description: Inhibition of PDK1 (IC50)
The kinase assay can be carried out as a 384-well flashplate assay. 3.4 nM His6-PDK1(Δ1-50), 400 nM PDKtide (biotin-bA-bA-[…]) and 4 μM ATP (with 0.2 μCi of 33P-ATP/well) are incubated at […] for 60 min in a total volume of 50 μl (50 mM TRIS, 10 mM Mg acetate, 0.1% of mercaptoethanol, 0.02% of Brij35, 0.1% of BSA, pH 7.5) with or without test substance (5-10 concentrations). The reaction is stopped using 25 μl of 200 mM EDTA solution, filtered with suction after 30 min at room temperature, and the wells are washed with 3 times 100 μl of 0.9% NaCl solution. The nonspecific content of the kinase reaction (blank) is determined using 100 nM staurosporine. Radioactivity is measured using a Topcount scintillation counter (PerkinElmer, USA). IC50 values are calculated using the RS1 computer program.

SMILES	IC50 [nM]
CN1CCC(N(C)c2ncc3c(n2)Nc2ccccc2NC3=O)CC1 [Compound 1]	2300
Cc1ccc2c(c1)Nc1nc(N(C)C3CCN(C)CC3)ncc1C(=O)N2 [Compound 2, 7-Methyl-3-[methyl(1-methylpiperidin-4-yl)amino]-5,10-dihydro-2,4,5,10-tetraazadibenzo[a,d]cyclohepten-11-one]	2400
Cc1cc2c(cc1C)Nc1nc(N(C)C3CCN(C)CC3)ncc1C(=O)N2 [Compound 3, 7,8-Dimethyl-3-[methyl(1-methylpiperidin-4-yl)amino]-5,10-dihydro-2,4,5,10-tetraazadibenzo[a,d]cyclohepten-11-one]	1000
CN1CCC(N(C)c2ncc3c(n2)Nc2ccc(Cl)cc2NC3=O)CC1 [Compound 4, 8-Chloro-3-[methyl(1-methylpiperidin-4-yl)amino]-5,10-dihydro-2,4,5,10-tetraazadibenzo[a,d]cyclohepten-11-one]	1400
COc1ccc2c(c1)NC(=O)c1cnc(N(C)C3CCN(C)CC3)nc1N2 [Compound 5, S-Methoxy-3-[methyl(1-methylpiperidin-4-yl)amino]-5,10-dihydro-2,4,5,10-tetraazadibenzo[a,d]cyclohepten-11-one]	800
Cc1ccc2c(c1)NC(=O)c1cnc(N(C)C3CCN(C)CC3)nc1N2 [Compound 6, 8-Methyl-3-[methyl(1-methylpiperidin-4-yl)amino]-5,10-dihydro-2,4,5,10-tetraazadibenzo[a,d]cyclohepten-11-one]	1100
COc1ccc2c(c1)NC(=O)c1cnc(NC3CCN(C)CC3)nc1N2 [Compound 7, 8-Methoxy-3-(1-methylpiperidin-4-ylamino)-5,10-dihydro-2,4,5,10-tetraazadibenzo[a,d]cyclohepten-11-one]	3100
Cc1cc2c(cc1C)Nc1nc(NC3CCN(C)CC3)ncc1C(=O)N2 [Compound 8, 7,8-Dimethyl-3-(1-methylpiperidin-4-ylamino)-5,10-dihydro-2,4,5,10-tetraazadibenzo[a,d]cyclohepten-11-one]	2500
Cc1ccc2c(c1)Nc1nc(NC3CCN(C)CC3)ncc1C(=O)N2 [Compound 9, 7-Methyl-3-(1-methylpiperidin-4-ylamino)-5,10-dihydro-2,4,56,10-tetraazadibenzo[a,d]cyclohepten-11-one]	4800
CN1CCC(N(C)c2ncc3c(n2)Nc2cc(Cl)ccc2NC3=O)CC1 [Compound 10]	1700
CN1CCC(Nc2ncc3c(n2)Nc2cc(C(F)(F)F)ccc2NC3=O)CC1 [Compound 11]	3900
Cc1ccc2c(c1)NC(=O)c1cnc(NC3CCN(C)CC3)nc1N2 [Compound 12]	900
CN1CCC(N(C)c2ncc3c(n2)Nc2ccc(Br)cc2NC3=O)CC1 [Compound 13]	1700
Cc1ccc2c(c1)NC(=O)c1cnc(N(C)C3CCN(C)CC3)nc1N2 [Compound 14]	400
CCOc1ccc2c(c1)NC(=O)c1cnc(N(C)C3CCN(C)CC3)nc1N2 [Compound 15]	900
CN1CCC(N(C)c2ncc3c(n2)Nc2ccc(C(C)(C)C)cc2NC3=O)CC1 [Compound 16]	400
CN1CCC(N(C)c2ncc3c(n2)Nc2ccc(C(F)(F)F)cc2NC3=O)CC1 [Compound 17]	1600
CN1CCC(Nc2ncc3c(n2)Nc2ccc(C(C)(C)C)cc2NC3=O)CC1 [Compound 18]	700
Cc1ccc2c(c1)NC(=O)c1cnc(NC3CCN(C)CC3)nc1N2 [Compound 19]	600
CCN(c1ncc2c(n1)Nc1ccc(C)cc1NC2=O)C1CCN(C)CC1 [Compound 20]	2800
CCOc1ccc2c(c1)NC(=O)c1cnc(NC3CCN(C)CC3)nc1N2 [Compound 21]	1000
Cc1ccc2c(c1C)Nc1nc(N(C)C3CCN(C)CC3)ncc1C(=O)N2 [Compound 22]	2600
Cc1ccc2c(c1C)Nc1nc(NC3CCN(C)CC3)ncc1C(=O)N2 [Compound 23]	3600
CN1CCC(N(C)c2ncc3c(n2)Nc2ccc(-c4ccsc4)cc2NC3=O)CC1 [Compound 25]	1000
Cc1ccc2c(c1)NC(=O)c1cnc(N(C(C)C)C3CCN(C)CC3)nc1N2 [Compound 26]	6200
Cc1noc(C)c1-c1ccc2c(c1)NC(=O)c1cnc(N(C)C3CCN(C)CC3)nc1N2 [Compound 29]	3200

Same assay, conditions: 4 μM ATP, 400 nM PDKtide, second part of Table 1 (compounds 32-124)

IC50 [nM]	SMILES
640	Cc1cc2c(cc1C)Nc1nc(N(C)C3CCN(C)CC3)ncc1C(=O)N2 [Compound 32]
3700	Cc1cc(C)c2c(c1)NC(=O)c1cnc(NC3CCN(C)CC3)nc1N2 [Compound 34]
1200	CN1CCC(Nc2ncc3c(n2)Nc2cc(Cl)c(Cl)cc2NC3=O)CC1 [Compound 36]
190	CN1CCC(Nc2ncc3c(n2)Nc2ccc(N(C)C)cc2NC3=O)CC1 [Compound 37]
600	CN1CCC(N(C)c2ncc3c(n2)Nc2ccc(C#N)cc2NC3=O)CC1 [Compound 38]
4900	CCN1CCC(Nc2ncc3c(n2)Nc2cc(Cl)c(Cl)cc2NC3=O)CC1 [Compound 39]
1400	CCN1CCC(Nc2ncc3c(n2)Nc2ccc(C(C)(C)C)cc2NC3=O)CC1 [Compound 40]
6300	CCN1CCC(Nc2ncc3c(n2)Nc2c(ccc(C)c2C)NC3=O)CC1 [Compound 41]
4800	CCN1CCC(Nc2ncc3c(n2)Nc2c(C)cc(C)cc2NC3=O)CC1 [Compound 42]
2000	CCOc1ccc2c(c1)NC(=O)c1cnc(NC3CCN(CC)CC3)nc1N2 [Compound 43]
920	CCN1CCC(Nc2ncc3c(n2)Nc2ccc(C(C)C)cc2NC3=O)CC1 [Compound 44]
1500	CCN1CCC(Nc2ncc3c(n2)Nc2ccc(C)cc2NC3=O)CC1 [Compound 45]
2400	Cc1cccc2c1Nc1nc(NC3CCN(C)CC3)ncc1C(=O)N2 [Compound 46]
1500	CCN1CCC(Nc2ncc3c(n2)Nc2cc(C)c(C)cc2NC3=O)CC1 [Compound 47]
5100	CCOc1ccc2c(c1)NC(=O)c1cnc(NC3CCN(C(C)C)CC3)nc1N2 [Compound 49]
1200	CC(C)c1ccc2c(c1)NC(=O)c1cnc(NC3CCN(C(C)C)CC3)nc1N2 [Compound 50]
2700	CC(C)N1CCC(Nc2ncc3c(n2)Nc2ccc(C(C)(C)C)cc2NC3=O)CC1 [Compound 51]
3600	CC(C)N1CCC(Nc2ncc3c(n2)Nc2ccc(F)cc2NC3=O)CC1 [Compound 52]
2400	Cc1ccc2c(c1)NC(=O)c1cnc(NC3CCN(C(C)C)CC3)nc1N2 [Compound 53]
7100	CCN1CCC(Nc2ncc3c(n2)Nc2c(C)cccc2NC3=O)CC1 [Compound 54]
2300	CCN1CCC(Nc2ncc3c(n2)Nc2ccc(C#N)cc2NC3=O)CC1 [Compound 55]
1500	CN1CCC(Nc2ncc3c(n2)Nc2ccc(C#N)cc2NC3=O)CC1 [Compound 56]
2000	Cc1cc2c(cc1C)Nc1nc(NC3CCN(C(C)C)CC3)ncc1C(=O)N2 [Compound 57]
7100	CC(C)N1CCC(Nc2ncc3c(n2)Nc2ccc(C#N)cc2NC3=O)CC1 [Compound 58]
2900	CCN1CCC(Nc2ncc3c(n2)Nc2ccc(C(F)(F)F)cc2NC3=O)CC1 [Compound 60]
6500	CC(C)N1CCC(Nc2ncc3c(n2)Nc2ccc(C(F)(F)F)cc2NC3=O)CC1 [Compound 61]
1800	CN1CCC(Nc2ncc3c(n2)Nc2ccc(C(F)(F)F)cc2NC3=O)CC1 [Compound 62]
520	CCOc1ccc2c(c1)NC(=O)c1cnc(NC3CCN(C)CC3)nc1N2 [Compound 65]
3400	Cc1ccc2c(c1C)Nc1nc(NC3CCN(C)CC3)ncc1C(=O)N2 [Compound 66]

SMILES	IC50 [nM]
Cc1cc(C)c2c(c1)NC(=O)c1cnc(N(C)C3CCN(C)CC3)nc1N2 [Compound 33]	1300
CN1CCC(N(C)c2ncc3c(n2)Nc2cc(Cl)c(Cl)cc2NC3=O)CC1 [Compound 35]	3700
CCN(c1ncc2c(n1)Nc1ccc(C(C)C)cc1NC2=O)C1CCN(C)CC1 [Compound 48]	3000
CCN(c1ncc2c(n1)Nc1ccc(F)cc1NC2=O)C1CCN(C)CC1 [Compound 59]	2400
CN1CCC(N(C)c2ncc3c(n2)Nc2ccc(-c4cccs4)cc2NC3=O)CC1 [Compound 63]	1000
CCOc1ccc2c(c1)NC(=O)c1cnc(N(C)C3CCN(C)CC3)nc1N2 [Compound 64]	430
CN1CCC(N(C)c2ncc3c(n2)Nc2ccc(C(F)(F)F)cc2NC3=O)CC1 [Compound 67]	1300
CN1CCC(N(C)c2ncc3c(n2)Nc2cc(N)ccc2NC3=O)CC1 [Compound 68]	510
CN1CCC(N(C)c2ncc3c(n2)Nc2cc(NC(=O)NC4CCCC4)ccc2NC3=O)CC1 [Compound 69]	650
